Assays:
[1] = native PP; cited from earlier work
C57BL/6 male mice [2] = assay: Feeding pattern of fasted mice after ip injection of hPP or B-74 (Example II, FIG. 1); assay type: in vivo; conditions: 18 h fasted mice, B-74 100 nmol/mice, versus saline control
Description: To study the feeding patterns of animals treated with B-74, seven to eight week old C57BL/6 male mice (Harlan Laboratories, Indianapolis, Ind.) were individually housed in cages in a temperature controlled room (25° C.) under 12-hour light/dark cycles. Mice had free access to water and standard chow and were acclimatized to daily ip saline injections. […] Food was provided ten (10) minutes later, and the 2 and 4 hour food intake was monitored. Statistical significance was determined by ANOVA, with individual means being compared post-hoc by Tukey's corrected t-test.

C57BL/6 male mice [3] = assay: Food intake of fasted mice after ip B-48 or B-74 alone or together (Example IV, FIGS. 2 and 3); assay type: in vivo; conditions: for Percentage of Inhibition of Food Intake Compared to Saline: B-48 vs. (B-48 + B-74), fasted mice, 0.050 μmol each compound
Description: To further compare the inhibitory effects of injecting (ip) 0.050 μmol of B-48 or B-74 alone or together (B-48+B-74) on the food intake by fasted mice, additional experiments were conducted.
Accordingly, to study the feeding patterns of animals treated with B-48 or B-74 alone or together (B-48+B-74), seven to eight week old C57BL/6 male mice (Harlan Laboratories, Indianapolis, Ind.) were individually housed in cages in a temperature controlled room (25° C.) under 12-hour light/dark cycles. The mice had free access to water and standard chow. After acclimatizing for one week, mice were fasted 18 hours before the experiment. The fasted animals were injected (ip) with 0.1 ml of saline or saline (0.1 ml) containing B-48 (0.050 μmol/mice) or B-74 (0.050 μmol/mice) alone or together, B-48+B-74 (0.100 μmol/mice, i.e. 0.050 μmol/mice per each compound), (n=8-10 per group). The mice were provided with a blown quantity of chow 10 minutes later. The food intake was monitored over 1-24 h. Statistical significance was determined by AN OVA, with individual means being compared post-hoc by Tukey's corrected t-test.

C57BL/6 male mice [4] = assay: Preliminary dose study of B-48 on food intake of fasted mice (Example III); assay type: in vivo; conditions: ip, overnight (18 h) fasted mice, food intake monitored over 1-24 h; preliminary studies, results not shown
Description: To further study the feeding patterns of animals treated with B-48, experiments were performed in seven to eight week old C57BL/6 male mice (Harlan Laboratories, Indianapolis, Ind.) after acclimatization of mice for one week. More specifically, in preliminary studies, overnight (18 h) fasted animals were injected (ip) with 0.1 ml of saline or saline (0.1 ml) containing various concentrations of B-48 (0.025, 0.050, 0.100 or 0.150 μmol/mice) (n=8-10 per group). The mice were provided with a known quantity of chow 10 min later. The food intake was monitored over 1-24 h.

## APLEPVYPGDNATPEQMAQYAADLRRYINMLTRPRY [PP]
[1]
  half-life: about six
C57BL/6 male mice [2]; 2 h
  2 h food intake: inhibited
C57BL/6 male mice [2]; 4 h
  4 h food intake: inhibited

## N-α-Ac[Nle^24,28,Trp^30,Nva^31,ψ^35/36]PYY(22-36)-NH2 (ASXRHYXNWXTRQRY; N-acetyl, C-amide, Nle, Nva, reduced CH2-NH bond; synthesized by man) [B-48, PYY(22-36) analog, Y2 receptor agonist; ψ is —CH2-NH—]
C57BL/6 male mice [3]; 2 hours after injection
  Percentage of Inhibition of Food Intake Compared to Saline: 39%
C57BL/6 male mice [3]; 4 hours after injection
  Percentage of Inhibition of Food Intake Compared to Saline: 30%
C57BL/6 male mice [3]; 8 hours after injection
  Percentage of Inhibition of Food Intake Compared to Saline: 16%
C57BL/6 male mice [3]; 18 h fasted mice, 0.050 μmol/mice per each compound, alone or together
  inhibition of food intake over the 24 h time period: inhibited food intake to a greater extent than the control
C57BL/6 male mice [3]; 24 hours after injection
  Percentage of Inhibition of Food Intake Compared to Saline: 7%
C57BL/6 male mice [4]
  minimum dose required to exhibit significant inhibitory effects on food intake: 0.050 μmol/mice
